Laboratory results: the NIST ThermoML archive (doi:10.1016/j.tca.2006.04.016)
± gives the expanded uncertainty stated by the source.

Test: xn = mol fraction of the nth substance listed
Conditions: 101 kPa, Liquid, Vibrating tube method, x1 = 1

O [water] + CN(C)CCCN
Conditions	mass density [kg/m3]
283.15 K	999.7 ± 0.51
323.15 K	988.03 ± 0.5
328.15 K	985.69 ± 0.5
333.15 K	983.191 ± 0.5
338.15 K	980.55 ± 0.5
343.15 K	977.76 ± 0.5
348.15 K	974.84 ± 0.5
353.15 K	971.79 ± 0.49
